Patent US6103888A, “Mammalian cationic proteins having lipopolysaccharide binding and anti-coagulant activity” (priority 1999, dated 2000)

Legend:
[1] = system: Salmonella minnesota ReLPS sensitized sheep erythrocytes; experiment: LPS hemagglutination assay (MAC); assay type: binding
Description: For hemagglutination assays, erythrocytes were sensitized with LPS as follows. One ml of 1% erythrocyte suspension (human 0 type, C3H/HeN mouse or sheep) was mixed with 0.2 ml of LPS solution and incubated at 37° C. for 30 min, followed by washing with phosphate buffered saline (PBS), and then the concentration of suspension was adjusted to 1.0%. In the case of S-LPS, the solution was heated at 100° C. for 1 hour before sensitization of erythrocytes. […] Activity of CAP was expressed as a minimum agglutinating concentration (MAC) of CAP. According to the method of Kirikae et al. (1986) Microbiol. Immunol. 30:269-274, 50 μl of 2-fold serial dilution of Re-LPS was added to 50 μl of 1.0% rabbit erythrocyte suspension, and incubated at 37° C. for 3 hour. Minimum agglutinating concentration of Re-LPS was expressed as 1 HA unit.

Human plasma = experiment: Prothrombin time (PT); assay type: biochemical
Description: Prothrombin time (PT). Human plasma (100 μl) was incubated with 100 μl of each peptide at 37° C. for 3 min., then 100 μl of tissue factor (250 μg/ml) CaCl2 was added and clotting time was measured.

Salmonella minnesota Re = experiment: Antibacterial CFU assay
Salmonella typhimurium = experiment: Antibacterial CFU assay; conditions: for anti-bacterial activity (CFU), in words: Salmonella typhimurium, smooth strain; for effect on CFU of S. typhimurium: high concentrations alone and in various combinations
prothrombin (factor II) [2] = target: prothrombin (factor II) (Homo sapiens, UniProt P00734); experiment: Prothrombin activation by Echis Carinatus venom (ECV); assay type: biochemical
Description: Prothrombin activation by Echis Carinatus venom (ECV). A reaction mixture of prothrombin (factor II) (0.1 unit/ml, 200 μl), ECV (1 unit/ml, 200 μl), various concentration of peptide (70 μl), 50 μl of 25 mM-CaCl2 and 180 μl of Tris buffer was incubated at 37° C. for 10 min. To 300 μl of the reaction mixture, 60 μl of 4 mM-thrombin substrate and 240 μl of buffer was added and further incubated for 15 min.

[3] = system: thioglycollate-stimulated murine peritoneal macrophages; experiment: LPS-induced tissue factor generation by macrophages (clotting assay); assay type: cell-based; conditions: peptides 1 μg/ml incubated with S. minnesota smooth LPS 5 minutes; 6 hr
Description: Tissue factor assay. Salmonella minnesota smooth LPS was incubated with each peptide (1 μg/ml) for 5 min., then the mixture was added to peritoneal murine macrophages obtained 4 days after thioglycollate stimulation. Cells were cultured for 6 hours prior to assay of tissue factor by clotting assay.
Various concentrations of Salmonella minnesota smooth LPS were incubated with each peptide (197 (RNIP), 36-1, 32-1, and 50-2) at 37° C. for 5 minutes prior to mixing with thioglycollate-stimulated murine peritoneal macrophages. Production of tissue factor after 6 hr. was measured by clotting assay. […] In the absence of LPS no tissue factor is synthesized by these cells.

RAW 264.7 cells = experiment: LPS- or IFNγ-induced reactive nitrogen intermediate (RNI) production, Griess nitrite assay; assay type: cell-based, murine; conditions: macrophages / RAW 264.7 cells
Description: From the sequence of the CAP18 cDNA, it was apparent that the putative N-terminal peptide of CAP18 was in fact an internal fragment of the CAP18 protein. We therefore tried to reconfirm the original protein sequence. Neutrophil-derived heparin bound cationic proteins were prepared as described above and applied to a C18 reverse phase HPLC (FIG. 1). We sequenced the major peaks. Peaks at fractions 14.5 and 15.2 correspond to defensins MCP1 and MCP2 (Territo et al. (1989) J. Clin. Invest. 84:2017-2019), respectively. Fraction 25.8 is macrophage related protein 14 (MRP14) (Odink et al. (1987) Nature 330:80-82). The fraction at 20.3 minutes corresponds to a fragment of CAP18 of approximately 4-5 kD. […] The murine macrophage cell line RAW 264.7 (obtained from ATCC) and thioglycollate-elicited murine peritoneal exudate cells are used to produce RNI. Cells are cultured at 1×10^6 /ml. in RPMI-1640 +2.5% FCS in 24 well plates in the presence or absence of different concentrations of LPS or murine rlFNγ. After 24 hr. incubation at 37° C., the cell free supernatant is collected and tested for the presence of RNI. Accumulation of nitrite in the medium is measured by a calorimetric assay based on the Griess reaction (Green et al. (1982) Anal. Biochem. 126:11) using sodium nitrite as standards. Sample (50 μl) is mixed with 50 μl of Griess reagent (1% sulfanilamide, 0.1% naphthalene diamine dihydrochloride, 2.5% H3 PO4) and after 10 min. at room temperature absorbance is read at 570 nm.

tissue factor generation = experiment: Effect of CAP-37 on LPS-induced tissue factor generation; assay type: cell-based; conditions: for Tissue factor units / Tissue factor units, value in parentheses (ratio to control): CAP-37 15 HA
Description: Table 6 presents a comparison of the effect of RNIP, CAP18, and defensins HP-1 and HP-2 (Territo et al. (1989) J. Clin. Invest. 84:2017-2019) on LPS-induced tissue factor generation. Tissue factor assays were performed as follows. Mouse peritoneal cells were elicted with an intraperitoneal injection of thioglycolate medium and harvested 5-days later by irrigation with pyrogen-free saline. The cells were washed with RPMI 1640 medium, counted and resuspended at a concentration of 1.5-2.0×10^6 /ml in serum-free RPMI medium containing glutamine (0.29 mg/ml), penicillin (50 units/ml) and streptomycin ([…]). Adherent cells were prepared by incubating 10 ml of a cell suspension (in RPMI 1640 media in sterile culture bottle (Nunclon, 50 ml, Inter Med) for 60 min. at 37° C. in a 5% CO2 atmosphere. The plastic adherent cells were recovered by scraping of the bottle with a sterile rubber policeman. The adherent cells were then washed twice with RPMI media, resuspended in serum-free medium (1×10^6 /ml) in culture tube (Nunc cryotube, Inter Med), and stimulated with graded doses of LPS for 6 hr. at 37° C. in a 5% CO2. The cell suspension was centrifuged and cell pellet was frozen at -80° C. until clotting assays were run.
Veronal buffered saline (VBS) was added to the cell pellet, lysed by 3 cycles of freeze/thaw and sonicated for 10 sec with a hand-held sonicator microbe (Handy Sonic, model UR-20P, Tomy Seiko LTD, Tokyo). Tissue factor activity was tested in modified unactivated partial thromboplastin time (7). One tenth ml of cell lysate (1×10^6 /ml) was preincubated with mouse plasma at 37° C. for 3 min. Then 0.1 ml of 25 mM-CaCl2 which contains phospholipid was added to the mixture and clotting time was measured using a fibrometer (Bio Quest Division, Becton Dickinson, Cokeysville, USA). A standard curve obtained from serial two-fold dilutions of rabbit brain thromboplastic (Simplastin, Ono Pharmaceutical Co.) was used to transpose tissue factor activity into arbitrary tissue factor units (1 μg/ml) suspension of rabbit brain was assigned a value of 1,000 units).
.dagger.LPS was incubated with CAP37 at 37° C. for 2 hours, and th
mixture was added to cells, then cultured for 6 hours.

prothrombin (factor II) [4] = target: prothrombin (factor II)

21-1: synthetic rabbit RNIP fragment, amino acids 135-151 of SEQ ID NO:4 (GLRKRLRKFRNKIKEKL) [Peptide 21-1]
Hemagglutination [MAC], minimum agglutinating concentration [1]: > 125 µg/mL

32-1: synthetic rabbit RNIP fragment, amino acids 135-143 of SEQ ID NO:4 (GLRKRLRKF) [Peptide 32-1]
inhibition of the prothrombin time (PT), in words (Human plasma): inactive | Hemagglutination [MAC], minimum agglutinating concentration [1]: > 125 µg/mL | anti-bacterial activity (CFU), in words (Salmonella minnesota Re): not active | effect of pretreatment on bacterial killing by peptide 197 (Salmonella typhimurium; S. typhimurium pretreated with peptide 32-1, then peptide 197): no inhibition or augmentation | anti-bacterial activity (CFU), in words (Salmonella typhimurium): not active | effect on CFU of S. typhimurium (Salmonella typhimurium): No effect | inhibition of Echis carinatus venom activation of purified factor II to IIa (in words) (prothrombin (factor II) [2]): inactive | inhibition of LPS induced tissue factor (in words) [3]: fail to inhibit

34-1: synthetic rabbit RNIP fragment, amino acids 140-166 of SEQ ID NO:4 (LRKFRNKIKEKLKKIGQKIQGLLPKLA) [Peptide 34-1]
Hemagglutination [MAC], minimum agglutinating concentration [1]: > 125 µg/mL

50-1: synthetic rabbit RNIP fragment, amino acids 147-171 of SEQ ID NO:4 (IKEKLKKIGQKIQGLLPKLAPRTDY) [Peptide 50-1]
Hemagglutination [MAC], minimum agglutinating concentration [1]: > 125 µg/mL

50-2: synthetic rabbit RNIP fragment, amino acids 147-171 of SEQ ID NO:4 (IKEKLKKIGQKIQGLLPKLAPRTDY) [Peptide 50-2]
inhibition of the prothrombin time (PT), in words (Human plasma): inactive | Hemagglutination [MAC], minimum agglutinating concentration [1]: > 125 µg/mL | anti-bacterial activity (CFU), in words (Salmonella minnesota Re): not active | anti-bacterial activity (CFU), in words (Salmonella typhimurium): not active | effect on CFU of S. typhimurium (Salmonella typhimurium): No effect | inhibition of Echis carinatus venom activation of purified factor II to IIa (in words) (prothrombin (factor II) [2]): inactive | inhibition of LPS induced tissue factor (in words) [3]: fail to inhibit

52-1: synthetic rabbit RNIP fragment, amino acids 143-169 of SEQ ID NO:4 (FRNKIKEKLKKIGQKIQGLLPKLAPRT) [Peptide 52-1]
Hemagglutination [MAC], minimum agglutinating concentration [1]: > 125 µg/mL

52-2: synthetic rabbit RNIP fragment, amino acids 143-170 of SEQ ID NO:4 (FRNKIKEKLKKIGQKIQGLLPKLAPRTD) [Peptide 52-2]
Hemagglutination [MAC], minimum agglutinating concentration [1]: > 125 µg/mL

52-3: synthetic rabbit RNIP fragment, printed as amino acids 132-171 of SEQ ID NO:4 (EPTGLRKRLRKFRNKIKEKLKKIGQKIQGLLPKLAPRTDY) [Peptide 52-3]
Hemagglutination [MAC], minimum agglutinating concentration [1]: > 125 µg/mL

54-1: synthetic rabbit RNIP fragment, amino acids 139-170 of SEQ ID NO:4 (RLRKFRNKIKEKLKKIGQKIQGLLPKLAPRTD) [Peptide 54-1]
Hemagglutination [MAC], minimum agglutinating concentration [1]: > 125 µg/mL

54-2: synthetic rabbit RNIP fragment, amino acids 139-171 of SEQ ID NO:4 (RLRKFRNKIKEKLKKIGQKIQGLLPKLAPRTDY) [Peptide 54-2]
Hemagglutination [MAC], minimum agglutinating concentration [1]: > 125 µg/mL

187: synthetic rabbit RNIP fragment, amino acids 151-171 of SEQ ID NO:4 (LKKIGQKIQGLLPKLAPRTDY) [Peptide 187]
inhibition of LPS-induced RNI production (in words) (RAW 264.7 cells): inactive | Hemagglutination [MAC], minimum agglutinating concentration [1]: > 125 µg/mL

polymyxin B [reference compound]
inhibition of LPS-induced RNI production (in words) (RAW 264.7 cells): inhibition

B1: CAP-37: another cationic peptide, azurocidin (CAP37) (Morgan et al.) (protein, UniProt P20160 27-248, looked up)
Azurocidin: IVGGRKARPRQFPFLASIQNQGRHFCGGALIHARFVMTAASCFQSQNPGVSTVVLGAYDLRRRERQSRQTFSISSMSENGYDPQQNLNDLMLLQLDREANLTSSVTILPLPLQNATVEAGTRCQVAGWGSQRSGGRLSRFPRFVNVTVTPEDQCRPNNVCTGVLTRRGGICNGDGGTPLVCEGLAHGVASFSLGPCGRGPDFFTRVALFRDWIDGVLNNPGP
inhibition of tissue factor generation (in words) (tissue factor generation): unable to inhibit tissue factor generation | Tissue factor units (tissue factor generation; LPS 0.1 μg/ml): 383 ± 307 units /1 × 10^5 cells | Tissue factor units, value in parentheses (ratio to control) (tissue factor generation; LPS 0.1 μg/ml): 2.3 | Tissue factor units (tissue factor generation; LPS 1.0 μg/ml): 648 ± 343 units /1 × 10^5 cells | Tissue factor units, value in parentheses (ratio to control) (tissue factor generation; LPS 1.0 μg/ml): 3.9 | Tissue factor units (tissue factor generation; no LPS): 183 ± 67 units /1 × 10^5 cells | Tissue factor units, value in parentheses (ratio to control) (tissue factor generation; no LPS): 1.1

GLRKRLRKFRNKIKEKLKKIGQKIQGLLPKLAPRTDY [synthetic rabbit RNIP peptide 197]
IC50, factor II activation by Xa (prothrombin (factor II) [4]): 50 nM

GLRKRLRKFRNKIKEKLKKIGQKIQGLLPKLA [synthetic rabbit RNIP peptide 36-1]
IC50, factor II activation by Xa (prothrombin (factor II) [4]): < 30 nM
